Test [1] deals with SD rats. Kind of test: animal or person. It counts as in vivo. The following applies: for ED50: Rattus norvegicus, SD rats (male, 220-300 g), injection via the tail vein, disappearance of righting reflex, read-out: ED50; for 2ED50 duration / 2ED50 recovery time / Quality of recovery: SD rats; for 2ED50 duration / 2ED50 recovery time: single tail vein injection at 2×ED50; for 2ED50 duration: time from disappearance to recovery of righting reflex; for 2ED50 recovery time: time from recovery of righting reflex to free crawling; for Quality of recovery: tail vein injection; for duration and recovery time compared with remimazolam / effective dose compared with remimazolam: rats, tail vein, in words.

The subject of test [2] is KM mice. In words: animal or person. Particulars: for 2ED50 duration / 2ED50 recovery time / Quality of recovery: KM mice; for 2ED50 duration / 2ED50 recovery time: single tail vein injection at 2×ED50; for 2ED50 duration: time from disappearance to recovery of righting reflex; for 2ED50 recovery time: time from recovery of righting reflex to free crawling; for ED50: Mus musculus, KM mice (male, 18-22 g), injection via the tail vein, disappearance of righting reflex, read-out: ED50; for duration and recovery time compared with remimazolam / effective dose compared with remimazolam: mice, tail vein, in words; for Quality of recovery: tail vein injection. Format: in vivo.

For `COC(=O)OCOC(=O)CC[C@@H]1N=C(c2ccccn2)c2cc(Br)ccc2-n2c(C)cnc21` [Example 34], in test [1], the ED50 (usually the dose at which the effect has come halfway, by size or by number of responders) turned out to be 3.4 mg/kg; the “2ED50 duration” value is reported as 1.21 min; the 2ED50 recovery time is 1.01 min; the Quality of recovery result is on record as “+ (“+” means <1 min)”. For the same molecule, in test [1], the “duration and recovery time compared with remimazolam” value is recorded as “significantly shorter”; the “effective dose compared with remimazolam” value is given as “significantly lower”. In addition, in test [2], the 2ED50 duration worked out at 1.31 min; the 2ED50 recovery time stood at 1.23 min; the ED50 was 14.4 mg/kg; the “duration and recovery time compared with remimazolam” value was “significantly shorter”. Further, the “effective dose compared with remimazolam” value in test [2] was “significantly lower”.

`CCOC(=O)COC(=O)CC[C@@H]1N=C(c2ccccn2)c2cc(Br)c(Br)cc2-n2c(C)cnc21` [Example 21]: in test [1], the ED50 turned out to be 4.2 mg/kg, the “2ED50 duration” value amounted to 3.08 min, the 2ED50 recovery time worked out at 2.27 min and the Quality of recovery result was “++ (“++” means 1-3 min)”. In test [2], the 2ED50 duration is 3.08 min, the 2ED50 recovery time was 2.01 min, the Quality of recovery entry is “++ (“++” means 1-3 min)” and the ED50 was found to be 25.9 mg/kg.

As for `CCCOC(=O)OCOC(=O)CC[C@@H]1N=C(c2ccccn2)c2c(ccc(Br)c2F)-n2c(C)cnc21` [Example 72, ((Propoxycarbonyl)oxy)methyl 3-((4S)-8-bromo-7-fluoro-1-methyl-6-(pyridine-2-yl)-4H-benzo[f]imidazo [1,2-a][1,4]diaza-4-ylpropionate sulfonate], in test [1], the ED50 amounted to 4.9 mg/kg, the “2ED50 duration” value worked out at 4.01 min, the 2ED50 recovery time is reported as 2.43 min and the Quality of recovery entry is reported as “++ (“++” means 1-3 min)”. In addition, in test [2], the 2ED50 duration was 3.12 min, the 2ED50 recovery time amounted to 2.48 min, the Quality of recovery entry is reported as “+++ (“+++” means 3-5 min)” and the ED50 amounted to 32.5 mg/kg.

Turning to `COC(=O)OC(C)OC(=O)CC[C@@H]1N=C(c2ccccn2)c2cc(Br)ccc2-n2c(C)cnc21` (some centres unmarked) [Example 53], in test [1], the ED50 was determined as 6 mg/kg, the “2ED50 duration” value was found to be 3.18 min, the 2ED50 recovery time amounted to 2.47 min and the Quality of recovery entry was “++ (“++” means 1-3 min)”. Further, in test [1], the “duration and recovery time compared with remimazolam” value is listed as “significantly shorter”; the “effective dose compared with remimazolam” value was “significantly lower”. Moreover, in test [2], the 2ED50 duration is recorded as 3.61 min; the 2ED50 recovery time is on record as 2.41 min; the ED50 was 25.7 mg/kg; the “duration and recovery time compared with remimazolam” value is recorded as “significantly shorter”. Also, the “effective dose compared with remimazolam” value in test [2] is listed as “significantly lower”.

Turning to `COC(=O)OC(C)OC(=O)CC[C@@H]1N=C(c2ccccn2)c2cc(Br)c(Br)cc2-n2c(C)cnc21` (some centres unmarked) [Example 15], in test [1], the 50% effective dose (ED50) was 1.5 mg/kg, the “2ED50 duration” value is listed as 1.29 min, the 2ED50 recovery time amounted to 1.01 min and the Quality of recovery entry was “+ (“+” means <1 min)”. In test [1], the “duration and recovery time compared with remimazolam” value is “significantly shorter”; the “effective dose compared with remimazolam” value is given as “significantly lower”. In test [2], the 2ED50 duration is given as 1.43 min; the 2ED50 recovery time was 1.01 min; the ED50 came out at 18.3 mg/kg; the “duration and recovery time compared with remimazolam” value is given as “significantly shorter”. Also, the “effective dose compared with remimazolam” value in test [2] is “significantly lower”.

For `COC1N(C)CC(CC(OC(=O)CC[C@@H]2N=C(c3ccccn3)c3cc(OC(F)(F)F)cc(C)c3-n3c(C)cnc32)OC(=O)OC(C(C)C)C(C)C)CN1C` (some centres unmarked) [Example 83], in test [1], the ED50 came to 6.1 mg/kg, the “2ED50 duration” value is given as 2.09 min, the 2ED50 recovery time worked out at 2.09 min and the Quality of recovery result is “+++ (“+++” means 3-5 min)”. Also, in test [2], the 2ED50 duration was 3.26 min, the 2ED50 recovery time was 2.46 min, the Quality of recovery result was “+++ (“+++” means 3-5 min)” and the ED50 amounted to 30.1 mg/kg.

In the case of `CCOC(=O)C1(OC(=O)CC[C@@H]2N=C(c3ccccn3)c3cc(Br)ccc3-n3c(C)cnc32)CC1` [Example 59, Ethyl 1-((3-((4S)-8-bromo-1-methyl-6-(pyridine-2-yl)-4H-benzo[f]imidazo [1,2-a][1,4]diaza-4-yl)propionyl)oxy) cyclopropane-1-carboxylate], in test [1], the ED50 turned out to be 1.76 mg/kg, the “2ED50 duration” value came out at 5.02 min, the 2ED50 recovery time is 2.51 min and the Quality of recovery entry was “++ (“++” means 1-3 min)”. For the same molecule, in test [1], the “duration and recovery time compared with remimazolam” value is “significantly shorter”; the “effective dose compared with remimazolam” value was “significantly lower”. Besides, in test [2], the 2ED50 duration was 2.77 min; the 2ED50 recovery time stood at 1.38 min; the ED50 amounted to 13.8 mg/kg; the “duration and recovery time compared with remimazolam” value is “significantly shorter”. For the same molecule, the “effective dose compared with remimazolam” value in test [2] is recorded as “significantly lower”.

With `CCOC(=O)OC(C)OC(=O)CC[C@@H]1N=C(c2ccccn2)c2cc(Br)c(Br)cc2-n2c(C)cnc21` (some centres unmarked) [Example 16], in test [1], the ED50 was determined as 3.4 mg/kg, the “2ED50 duration” value worked out at 0.57 min, the 2ED50 recovery time amounted to 0.53 min and the Quality of recovery result is given as “+ (“+” means <1 min)”. In addition, in test [1], the “duration and recovery time compared with remimazolam” value is “significantly shorter”; the “effective dose compared with remimazolam” value is listed as “significantly lower”. Further, in test [2], the 2ED50 duration was determined as 1.57 min; the 2ED50 recovery time is 1.23 min; the ED50 amounted to 15.7 mg/kg; the “duration and recovery time compared with remimazolam” value was “significantly shorter”. For the same molecule, the “effective dose compared with remimazolam” value in test [2] is “significantly lower”.

As for `CCOC(=O)COC(=O)CC[C@@H]1N=C(c2ccccn2)c2cc(Br)ccc2-n2c(C)cnc21` [Example 57, 2-Ethoxy-2-oxoethyl-3-((4S)-8-bromo-1-methyl-6-(pyridine-2-yl)-4H-benzo [f]imidazo[1,2-a][1,4]diaza-4-ylpropionate], in test [1], the ED50 stood at 4.7 mg/kg, the “2ED50 duration” value is 5.07 min, the 2ED50 recovery time is given as 2.41 min and the Quality of recovery entry is recorded as “+ (“+” means <1 min)”. For the same molecule, in test [1], the “duration and recovery time compared with remimazolam” value was “significantly shorter”; the “effective dose compared with remimazolam” value was “significantly lower”. In addition, in test [2], the 2ED50 duration was 3.90 min; the 2ED50 recovery time turned out to be 2.31 min; the ED50 came out at 25 mg/kg; the “duration and recovery time compared with remimazolam” value is “significantly shorter”. Besides, in test [2], the “effective dose compared with remimazolam” value was “significantly lower”.

For the molecule `CCOC(=O)COC(=O)CC[C@@H]1N=C(c2ccccn2)c2cc(Cl)c(OC(F)(F)F)cc2-n2c(C)cnc21` [Example 28], in test [1], the ED50 amounted to 4.5 mg/kg, the “2ED50 duration” value stood at 0.58 min, the 2ED50 recovery time stood at 0.33 min and the Quality of recovery entry is on record as “+ (“+” means <1 min)”. In test [1], the “duration and recovery time compared with remimazolam” value is on record as “significantly shorter”; the “effective dose compared with remimazolam” value was “significantly lower”. Further, in test [2], the 2ED50 duration was found to be 0.52 min; the 2ED50 recovery time worked out at 0.58 min; the ED50 amounted to 9.5 mg/kg; the “duration and recovery time compared with remimazolam” value was “significantly shorter”. Also, in test [2], the “effective dose compared with remimazolam” value is “significantly lower”.

For the molecule `CCOC(CCC(C)(C)OC(=O)CC[C@@H]1N=C(c2ccccn2)c2cc(Br)cc(Cl)c2-n2c(C)cnc21)C(=O)OC` (stereo partly drawn) [Example 65, Methyl 5-((3-((4S)-8-bromo-10-chloro-1-methyl-6-(pyridine-2-yl)-4H-benzo [f]imidazo[1,2-a][1,4]diazapin-4-yl)propionyl)oxy)-2-ethoxy-5-methylcaproate], in test [1], the ED50 turned out to be 6.3 mg/kg, the “2ED50 duration” value was 3.25 min, the 2ED50 recovery time was determined as 2.29 min and the Quality of recovery entry is “++++ (“++++” means 5-10 min)”. Moreover, in test [2], the 2ED50 duration stood at 3.4 min, the 2ED50 recovery time came to 2.04 min, the Quality of recovery result was “++ (“++” means 1-3 min)” and the ED50 was found to be 31.2 mg/kg.

Consider `COC(=O)C1(OC(=O)CC[C@@H]2N=C(c3ccccn3)c3c(Cl)cc(C(F)(F)F)cc3-n3c(C)cnc32)CC1` [Example 39], for which, in test [1], the ED50 is 6.7 mg/kg, the “2ED50 duration” value is 4.03 min, the 2ED50 recovery time was found to be 2.48 min and the Quality of recovery result is listed as “++ (“++” means 1-3 min)”. Also, in test [2], the 2ED50 duration is 5.09 min, the 2ED50 recovery time was 2.28 min, the Quality of recovery entry was “+++ (“+++” means 3-5 min)” and the ED50 was 26.7 mg/kg.

For the molecule `COC(=O)C(OC(=O)CC[C@@H]1N=C(c2ccccn2)c2cc(Cl)cc(OC(F)(F)F)c2-n2c(C)cnc21)C1CCCCCCCCC1` (some centres unmarked) [Example 82], in test [1], the ED50 was 5.8 mg/kg, the “2ED50 duration” value is given as 2.15 min, the 2ED50 recovery time came to 2.10 min and the Quality of recovery result is on record as “++ (“++” means 1-3 min)”. In addition, in test [2], the 2ED50 duration is 3.54 min, the 2ED50 recovery time came to 2.13 min, the Quality of recovery result was “+++ (“+++” means 3-5 min)” and the ED50 came out at 29.8 mg/kg.

(Values after patent US12473291B2 (priority 2019, dated 2025).)
